This is an account of results in ChEMBL document CHEMBL1955732, “Synthesis and biological evaluation of 21-arylidenepregnenolone derivatives as neuroprotective agents” (Bioorg Med Chem Lett, 2012).

The structures appear in SMILES notation. Activity calls are given as the source filed them. The rule behind the calls is not given here.

One data set deals with PC-12. The data set is described as follows: Neuroprotective activity against Abeta25-35-induced […] cells assessed as cell viability at 10 uM preincubated for 2 hrs prior Abeta25-35 challenge measured after 24 hrs by MTT assay. Type of data set: functional. Particulars: Rattus norvegicus, read-out: Activity. In general terms: Tetrazolium assays rely on reduction of a dye to a coloured formazan, in cell work by metabolically active cells.
As for `COc1ccccc1/C=C/C(=O)[C@H]1CC[C@H]2[C@@H]3C[C@@H]4O[C@@]45C[C@@H](O)CC[C@]5(C)[C@H]3CC[C@]12C`, the viability at 10 µM came out at 73.7%.

With `C[C@]12CC[C@H]3[C@@H](CC=C4C[C@@H](O)CC[C@@]43C)[C@@H]1CC[C@@H]2C(=O)/C=C/c1ccc(F)cc1`, the viability at 10 µM turned out to be 32.6%.

As for `C[C@]12CC[C@H]3[C@@H](CC=C4C[C@@H](O)CC[C@@]43C)[C@@H]1CC[C@@H]2C(=O)/C=C/c1ccccc1F`, the viability at 10 µM turned out to be 38.3%.

On to `C[C@]12CC[C@H]3[C@@H](C[C@@H]4O[C@@]45C[C@@H](O)CC[C@]35C)[C@@H]1CC[C@@H]2C(=O)/C=C/c1ccc(Cl)cc1`, for which the viability at 10 µM is 39.1%.

Consider `COc1ccc(/C=C/C(=O)[C@H]2CC[C@H]3[C@@H]4CC=C5C[C@@H](O)CC[C@]5(C)[C@H]4CC[C@]23C)cc1`, for which the viability at 10 µM was found to be 25.7%.

`C[C@]12CC[C@H]3[C@@H](C[C@@H]4O[C@@]45C[C@@H](O)CC[C@]35C)[C@@H]1CC[C@@H]2C(=O)/C=C/c1ccc(F)cc1`: the viability at 10 µM was 47.6%.

In the case of `C[C@]12CC[C@H]3[C@@H](CC=C4C[C@@H](O)CC[C@@]43C)[C@@H]1CC[C@@H]2C(=O)/C=C/c1ccco1`, the viability at 10 µM was determined as 36.9%.

Regarding `COc1cccc(/C=C/C(=O)[C@H]2CC[C@H]3[C@@H]4CC=C5C[C@@H](O)CC[C@]5(C)[C@H]4CC[C@]23C)c1`, the viability at 10 µM is 44%.

Take `COc1ccccc1/C=C/C(=O)[C@H]1CC[C@H]2[C@@H]3CC=C4C[C@@H](O)CC[C@]4(C)[C@H]3CC[C@]12C`: the viability at 10 µM is 74.5%.

For `Cc1ccccc1/C=C/C(=O)[C@H]1CC[C@H]2[C@@H]3CC=C4C[C@@H](O)CC[C@]4(C)[C@H]3CC[C@]12C`, the viability at 10 µM was 50.4%.

For `COc1ccc(/C=C/C(=O)[C@H]2CC[C@H]3[C@@H]4C[C@@H]5O[C@@]56C[C@@H](O)CC[C@]6(C)[C@H]4CC[C@]23C)cc1`, the viability at 10 µM came out at 29.6%.

Consider `CCOc1ccccc1/C=C/C(=O)[C@H]1CC[C@H]2[C@@H]3C[C@@H]4O[C@@]45C[C@@H](O)CC[C@]5(C)[C@H]3CC[C@]12C`, for which the viability at 10 µM came out at 49.5%.

In another data set the test system is PC-12. The data set is described as follows: Neuroprotective activity against H2O2-induced […] cells assessed as cell viability at 10 uM preincubated for 2 hrs prior H2O2 challenge measured after 24 hrs by MTT assay. It is filed as functional. Particulars: Rattus norvegicus, read-out: Activity.
For the compound `COc1ccccc1/C=C/C(=O)[C@H]1CC[C@H]2[C@@H]3CC=C4C[C@@H](O)CC[C@]4(C)[C@H]3CC[C@]12C`, the viability at 10 µM turned out to be 83.7%.

For a further data set, the system named is SH-SY5Y. The data set is described as follows: Neuroprotective activity against oxygen-glucose deprivation-induced human SH-SY5Y cells assessed as cell viability at 5 uM preincubated for 2 hrs prior oxygen-glucose deprivation challenge for 1 hr measured after 24 hrs incubation under normal condition by MTT assay. Type of data set: functional. Particulars: read-out: Activity.
As to `Cc1ccccc1/C=C/C(=O)[C@H]1CC[C@H]2[C@@H]3CC=C4C[C@@H](O)CC[C@]4(C)[C@H]3CC[C@]12C`, the viability at 5 µM turned out to be 84.8%.

On to `CCOc1ccccc1/C=C/C(=O)[C@H]1CC[C@H]2[C@@H]3C[C@@H]4O[C@@]45C[C@@H](O)CC[C@]5(C)[C@H]3CC[C@]12C`, for which the viability at 5 µM is 98.8%.

The next data set deals with PC-12. The data set is described as follows: Neuroprotective activity against Abeta25-35-induced […] cells assessed as cell viability at 1 uM preincubated for 2 hrs prior Abeta25-35 challenge measured after 24 hrs by MTT assay. Type of data set: functional. As to conditions: Rattus norvegicus.
`COc1ccccc1/C=C/C(=O)[C@H]1CC[C@H]2[C@@H]3C[C@@H]4O[C@@]45C[C@@H](O)CC[C@]5(C)[C@H]3CC[C@]12C`: the outcome was inactive.

On to `C[C@]12CC[C@H]3[C@@H](CC=C4C[C@@H](O)CC[C@@]43C)[C@@H]1CC[C@@H]2C(=O)/C=C/c1ccc(F)cc1`, for which the result was inactive.

As to `C[C@]12CC[C@H]3[C@@H](C[C@@H]4O[C@@]45C[C@@H](O)CC[C@]35C)[C@@H]1CC[C@@H]2C(=O)/C=C/c1ccc(Cl)cc1`, the outcome was inactive.

With `COc1ccc(/C=C/C(=O)[C@H]2CC[C@H]3[C@@H]4CC=C5C[C@@H](O)CC[C@]5(C)[C@H]4CC[C@]23C)cc1`, the outcome was inactive.

With `C[C@]12CC[C@H]3[C@@H](C[C@@H]4O[C@@]45C[C@@H](O)CC[C@]35C)[C@@H]1CC[C@@H]2C(=O)/C=C/c1ccc(F)cc1`, the outcome was inactive.

`Cc1ccccc1/C=C/C(=O)[C@H]1CC[C@H]2[C@@H]3CC=C4C[C@@H](O)CC[C@]4(C)[C@H]3CC[C@]12C`: the result was inactive.

Consider `COc1ccc(/C=C/C(=O)[C@H]2CC[C@H]3[C@@H]4C[C@@H]5O[C@@]56C[C@@H](O)CC[C@]6(C)[C@H]4CC[C@]23C)cc1`, for which the outcome was inactive.

Consider `CCOc1ccccc1/C=C/C(=O)[C@H]1CC[C@H]2[C@@H]3C[C@@H]4O[C@@]45C[C@@H](O)CC[C@]5(C)[C@H]3CC[C@]12C`, for which the result was inactive.

Staying with this data set, now noted: Rattus norvegicus, read-out: Activity.
On to `C[C@]12CC[C@H]3[C@@H](CC=C4C[C@@H](O)CC[C@@]43C)[C@@H]1CC[C@@H]2C(=O)/C=C/c1ccccc1F`, for which the viability at 1 µM came out at 53.1%.

Regarding `C[C@]12CC[C@H]3[C@@H](CC=C4C[C@@H](O)CC[C@@]43C)[C@@H]1CC[C@@H]2C(=O)/C=C/c1ccco1`, the viability at 1 µM turned out to be 52.5%.

As to `COc1cccc(/C=C/C(=O)[C@H]2CC[C@H]3[C@@H]4CC=C5C[C@@H](O)CC[C@]5(C)[C@H]4CC[C@]23C)c1`, the viability at 1 µM is 50.3%.

`COc1ccccc1/C=C/C(=O)[C@H]1CC[C@H]2[C@@H]3CC=C4C[C@@H](O)CC[C@]4(C)[C@H]3CC[C@]12C`: the viability at 1 µM is 64.1%.

Another data set has as its system PC-12. The data set is described as follows: Cytotoxicity against […] cells at 10 uM after 24 hrs by MTT assay. As to conditions: rat, pc-12, 24 h. Type of data set: cell-based.
Take `C[C@]12CC[C@H]3[C@@H](CC=C4C[C@@H](O)CC[C@@]43C)[C@@H]1CC[C@@H]2C(=O)/C=C/c1ccc(F)cc1`: the Activity entry is given as “Toxic”.

Consider `C[C@]12CC[C@H]3[C@@H](CC=C4C[C@@H](O)CC[C@@]43C)[C@@H]1CC[C@@H]2C(=O)/C=C/c1ccccc1F`, for which the Activity result is on record as “Toxic”.

Consider `C[C@]12CC[C@H]3[C@@H](C[C@@H]4O[C@@]45C[C@@H](O)CC[C@]35C)[C@@H]1CC[C@@H]2C(=O)/C=C/c1ccc(Cl)cc1`, for which the Activity result is “Toxic”.

For `COc1ccc(/C=C/C(=O)[C@H]2CC[C@H]3[C@@H]4CC=C5C[C@@H](O)CC[C@]5(C)[C@H]4CC[C@]23C)cc1`, the Activity result is “Toxic”.

With `C[C@]12CC[C@H]3[C@@H](C[C@@H]4O[C@@]45C[C@@H](O)CC[C@]35C)[C@@H]1CC[C@@H]2C(=O)/C=C/c1ccc(F)cc1`, the Activity entry is given as “Toxic”.

As to `C[C@]12CC[C@H]3[C@@H](CC=C4C[C@@H](O)CC[C@@]43C)[C@@H]1CC[C@@H]2C(=O)/C=C/c1ccco1`, the Activity result was “Toxic”.

Regarding `COc1cccc(/C=C/C(=O)[C@H]2CC[C@H]3[C@@H]4CC=C5C[C@@H](O)CC[C@]5(C)[C@H]4CC[C@]23C)c1`, the Activity result is given as “Toxic”.

For the compound `Cc1ccccc1/C=C/C(=O)[C@H]1CC[C@H]2[C@@H]3CC=C4C[C@@H](O)CC[C@]4(C)[C@H]3CC[C@]12C`, the Activity result is recorded as “Toxic”.

Consider `COc1ccc(/C=C/C(=O)[C@H]2CC[C@H]3[C@@H]4C[C@@H]5O[C@@]56C[C@@H](O)CC[C@]6(C)[C@H]4CC[C@]23C)cc1`, for which the Activity result is recorded as “Toxic”.

With `CCOc1ccccc1/C=C/C(=O)[C@H]1CC[C@H]2[C@@H]3C[C@@H]4O[C@@]45C[C@@H](O)CC[C@]5(C)[C@H]3CC[C@]12C`, the Activity entry was “Toxic”.

For a further data set, the system named is SH-SY5Y. The data set is described as follows: Neuroprotective activity against oxygen-glucose deprivation-induced human SH-SY5Y cells assessed as cell viability at 10 uM preincubated for 2 hrs prior oxygen-glucose deprivation challenge for 1 hr measured after 24 hrs incubation under normal condition by MTT assay. Type of data set: functional. Particulars: read-out: Activity.
For the compound `COc1ccccc1/C=C/C(=O)[C@H]1CC[C@H]2[C@@H]3C[C@@H]4O[C@@]45C[C@@H](O)CC[C@]5(C)[C@H]3CC[C@]12C`, the viability at 10 µM is 98.7%.

A further data set concerns PC-12. The data set is described as follows: Cytotoxicity against […] cells at 1 uM after 24 hrs by MTT assay. Type of data set: cell-based. Particulars: rat, pc-12, 24 h.
In the case of `C[C@]12CC[C@H]3[C@@H](CC=C4C[C@@H](O)CC[C@@]43C)[C@@H]1CC[C@@H]2C(=O)/C=C/c1ccccc1F`, the Activity result is “Toxic”.

Consider `C[C@]12CC[C@H]3[C@@H](CC=C4C[C@@H](O)CC[C@@]43C)[C@@H]1CC[C@@H]2C(=O)/C=C/c1ccco1`, for which the Activity entry is given as “Toxic”.

Take `COc1cccc(/C=C/C(=O)[C@H]2CC[C@H]3[C@@H]4CC=C5C[C@@H](O)CC[C@]5(C)[C@H]4CC[C@]23C)c1`: the Activity result is recorded as “Toxic”.
